Starred links: 1 amine or outer side, 2 acyl side, 3 side chain; linkers in the order of their positions; H or OH if unused. Non-standard residues stand in square brackets, D forms with d. Residues, ends and D or L forms follow the SMILES beside them. *: point of attachment. γGlu = O=C(O)[CH](CCC(=O)[*:2])N[*:1]; Lauroyl = CCCCCCCCCCCC(=O)*
Compared with `COc1cn(-c2ccc(C3=CCOCC3)cc2F)nc(-c2ccnn2-c2ccccc2)c1=O`, `O=C(c1cccc(F)c1)N1Cc2c(-c3ccc(F)cc3)ncn2-c2ccccc21` is lower in melting point: 229 to 231 °C for the first, 176 to 177 °C for the second.

Compared with `CNc1nc(Cl)cc(Cl)n1`, `CCOC(=O)c1c(Cl)c(-c2ncc(Cl)cc2F)nn1C` is lower in melting point: 157 to 158 °C for the first, 77 to 79 °C for the second.

Compared with `CCCCOc1nc(N)c2nc(OC)n(CCCCNCCOC)c2n1`, `CCCc1nc2c(N)nc3ccccc3c2n1CCC(=O)N(C)C` is higher in melting point: 99 to 100 °C for the first, 207 to 209 °C for the second.

First: CC(C)(C)C1=NN(c2ccc(C(=O)O)cc2)C(c2ccccc2)C1 (configuration not stated)
Second: CC(C)(C)OC(=O)c1ccc(C(=O)N(Cc2ccccc2)S(=O)(=O)c2ccc(Br)cc2)cc1
The melting point of the first is higher: 233 °C for the first, 120 to 122 °C for the second.

First: Cc1cc(=O)n(-c2cc(C(=O)OC(C)C)c(Cl)cc2F)c(=O)n1C(F)F
Second: C[C@H]1[C@H](O)CN1c1c(F)cc2c(=O)c(C(=O)O)cn(C3CC3)c2c1F (relative stereo)
The melting point of the first is lower: 90 to 93 °C for the first, 215 to 218 °C for the second.

Compared with `Cc1cccc2c(=O)cc(O)c(=O)[nH]c12`, `Cc1cc(O)c(S(=O)Cc2ccccc2)c(=O)o1` (configuration not stated) is lower in melting point: 184 to 186 °C for the first, 150 to 153 °C for the second.

First: CCN(c1nc(C)cc(C(=O)N2CCOCC2)n1)c1ccc(C(C)C)cc1Br
Second: COc1nc2ccccc2nc1NC(=O)N1CCN(c2cc(C)cc(C)c2)CC1
The melting point of the first is lower: 145 °C for the first, 155 to 157 °C for the second.

First: COc1ccc2cc(C3(O)CN4CCC3CC4)ccc2c1 (racemic)
Second: Cc1ccc(NC(=O)C(=O)N2CCC(Cc3ccc(F)cc3)CC2)cc1
The melting point of the first is higher: greater than 330 °C for the first, 125 to 126 °C for the second.

Compared with `CCc1nc(/C=C/c2cn(-c3ccccc3C)nc2O)cs1`, `Cc1cc(O)nc2c1c(C)nn2-c1ccccn1` is higher in melting point: 174 to 176 °C for the first, 254 to 255 °C for the second.

First: CC(C)(C)[S@](=O)N1CCC[C@@H]1c1ccc(Br)cc1
Second: CS(=O)(=O)OCC1CCN(c2ccc(Br)cc2)C1=O (configuration not stated)
The melting point of the first is lower: 100 to 112 °C for the first, 120 to 123 °C for the second.

Compared with `Cc1oc(-c2ccc(F)cc2)cc1CO`, `CCNC(=O)OCCOc1ccc(Oc2ccc(F)cc2)cc1Cl` is lower in melting point: 80 to 82 °C for the first, 42 to 43 °C for the second.

Compared with `CC(C)c1c(C=CC2CC(O)CC(O)O2)n(C2CCCCC2)c(=O)c2ccccc12` (mixture of isomers), `O=C(NC1CCCCC1)N1CCc2cc(S(=O)(=O)N3CC(c4ccccc4)NC3=O)ccc21` (configuration not stated) is higher in melting point: 141 to 142 °C for the first, 273 to 275 °C for the second.

First: CCC1c2cc(OC)c(OC)cc2C(C=Cc2ccc(N)cc2)=NNC1C (configuration not stated)
Second: CCOC(=O)COc1ccc(C(=O)Nc2ccccc2Sc2ccccc2-c2nnn[nH]2)cc1OC
The melting point of the first is lower: 155 to 158 °C for the first, 179 to 181 °C for the second.

First: CCCCCC(=O)NC[C@H]1CNC(=O)O1
Second: COc1cc(NC(=O)CCCCCN2CC(C)OC(C)C2)c2nccc(C)c2c1 (configuration not stated)
The melting point of the first is higher: 124 °C for the first, 87 to 90 °C for the second.

First: CCOC(=O)C(CCCCCc1ccc(Cl)cc1)NS(C)(=O)=O (configuration not stated)
Second: O=C(O)[C@H](Cc1ccccc1)NS(=O)(=O)c1ccc(Cl)cc1
The melting point of the first is lower: 60 to 62 °C for the first, 132 to 134 °C for the second.

First: CSC(=NCCSCc1ccsn1)NC#N
Second: COc1cc2c(C)c(C#N)c(SC)nc2cc1OC(C)=O
The melting point of the first is lower: 85 to 87 °C for the first, 225 to 230 °C for the second.

First: Cn1c(O)nc2cc(Cn3ccnc3)ccc21
Second: COc1cc(CCNC(=O)c2cccnc2)ccc1O
The melting point of the first is higher: 207 °C for the first, 192 to 194 °C for the second.

First: C#CCc1c(C)nc2c(OCc3c(C)cccc3NC(=O)OC)cccn12
Second: COC(=O)C(C)(Cc1ccc(OCCc2nc(-c3ccccc3)oc2C)cc1)C(=O)OC
The melting point of the first is higher: 179 to 180 °C for the first, 75.1 to 76 °C for the second.

First: COC(=O)CCc1cc(-n2nc3ccc(Br)cc3n2)c(O)c(C(C)(C)C)c1
Second: CCCC(=O)ON=C(c1ccccc1)c1cc(C(C)(C)C)c(O)c(C(C)(C)C)c1
The melting point of the first is lower: 116 to 118 °C for the first, 118 to 119 °C for the second.

Compared with `OCc1ccc(Oc2cccnc2)c(C(F)(F)F)c1`, `CCc1n[nH]c2c1nc(-c1cccnc1)c1ccccc12` is higher in melting point: 96 °C for the first, 219 to 220 °C for the second.

First: COc1ccc(C(C#N)CNC(=O)C(N)=O)cc1OC1CCCC1 (configuration not stated)
Second: Nc1nc(OC2CCCC2)c2ncn([C@@H]3C[C@H](CO)[C@@H](O)C3)c2n1
The melting point of the first is lower: 176 to 177 °C for the first, 181 to 182 °C for the second.

First: CCc1nc2c(C)cc(C)nc2n1Cc1ccc(C2(C(=O)O)Cc3ccccc3C2)s1
Second: C=CCn1nc(-c2sc(C(=O)NCc3ccccn3)nc2-c2ccccc2)ccc1=O
The melting point of the first is higher: 243 to 244 °C for the first, 117 to 118 °C for the second.

First: CCOC(=O)c1cnn(-c2cccc(S(=O)(=O)N(C)C)n2)c1Cl
Second: CCOC(=O)c1coc2ccc(-c3nnc(C)o3)cc12
The melting point of the first is lower: 117 to 120 °C for the first, 135 to 136 °C for the second.

Compared with `CCc1[nH]n(C2CCCC2)c2nc(-c3ccc(Cl)cc3O)nc(=O)c1-2`, `COc1cc2c3c(nc4ccccc4c3c1)-c1ccc(Cl)cc1N2` is lower in melting point: greater than 300 °C for the first, 240 to 242 °C for the second.

First: NS(=O)(=O)c1ccc(-c2c(-c3ccccc3)noc2CC(=O)C(F)(F)F)cc1
Second: Cc1oc(-c2ccccc2)nc1CCC(=O)c1ccc(CC2OC(=O)NC2=O)cc1 (configuration not stated)
The melting point of the first is lower: 132 to 139 °C for the first, 198 to 200 °C for the second.

Compared with `Cn1cc(-c2ccccc2)c(C(=O)NCCNC(=O)OC(C)(C)C)n1`, `CC(C)(C)OC(=O)NNc1cccc([N+](=O)[O-])c1` is lower in melting point: 145 °C for the first, 105 °C for the second.

First: N#Cc1ccc2c(c1)CCC1CC(=O)NN=C21 (configuration not stated)
Second: CC(=NNc1ccc(C2=NNC(=O)CC2)cc1)c1cnccn1
The melting point of the first is higher: 292 to 295 °C for the first, 197 to 202 °C for the second.

Compared with `CCOc1cc(Cc2cnc(N)nc2N)cc2c1OC(C)(C)C=C2C#CC(C)O` (configuration not stated), `CC(C)CNCc1cccc(OCCCNc2nc(N)nn2C)c1` is lower in melting point: 218 to 219 °C for the first, 89 to 90 °C for the second.

Compared with `Cn1cnc(COc2nc3c(-c4ccccc4F)nncn3c2-c2ccccc2)n1`, `CC(C)(CO)Nc1nc(-c2ccccc2)nc2ccccc12` is lower in melting point: 186 °C for the first, 136 to 138 °C for the second.

First: CC1(C)[C@@H](C(=O)Nc2ccncc2)[C@@H]1c1ccc(S(N)(=O)=O)cc1 (relative stereo)
Second: CC(C)c1cccc(C(C)C)c1NC(=O)C1c2ccccc2OCc2nc(Br)ccc21 (configuration not stated)
The melting point of the first is higher: 270 to 274 °C for the first, 151 to 153 °C for the second.

`CC(C)[C@@H]1CC[C@@H](C)C[C@@]1(O)CO` and `OCC[C@@H]1CCCC[C@@H]1c1ccccc1` (relative stereo) fall in the same range of melting point: 48 to 50 °C for the first, 48 to 50 °C for the second.

Compared with `CC1CC2(NC(=O)NC2=O)c2cc(F)ccc2O1` (configuration not stated), `O=C1NCc2ccccc2N1` is lower in melting point: 233 to 235 °C for the first, 142 °C for the second.

First: COC1=C(OC)C(=O)C2=C(CCC(CCO)CC2)C1=O
Second: COC(=O)c1cc(F)c(N2CCC(N)C2)nc1Nc1ccc(F)cc1F (configuration not stated)
The melting point of the first is lower: 63 to 64 °C for the first, 139 to 140 °C for the second.

First: CC[C@H](C(=O)O)[C@H](N)C(=O)O
Second: O=C(O)c1cc2ccsc2nc1C(=O)O
The melting point of the first is lower: 239 to 241 °C for the first, 272 to 275 °C for the second.

Going from `CCc1cc(O)n2ncnc2n1` to `C=CCc1cc(OCC(=O)OCC)ccc1O`, the melting point falls from 212 °C to 52.8 °C.

First: CN(C)C(=O)NS(=O)(=O)C=Cc1ccccc1
Second: CCCC1=NN(c2cccnc2)C(=O)C1=CNc1ccccc1CC
The melting point of the first is higher: 160 to 162 °C for the first, 144 °C for the second.

First: Cc1ccc(C(=O)n2c3c(c4cc(F)ccc42)CC(C(=O)O)CC3)cc1 (configuration not stated)
Second: Cc1cccc(C)c1-c1cc(C(N)=O)ccc1C(N)=O
The melting point of the first is lower: 229 to 231 °C for the first, 246 to 248 °C for the second.

First: CCc1cc(=O)oc2cc(O)cc(O)c12
Second: CCOC(=O)c1cc(=O)cc(C)o1
The melting point of the first is higher: 241 to 243 °C for the first, 35 to 38 °C for the second.

First: CCOC(=O)C1=C(C)NN=C(CC)C1c1cccc([N+](=O)[O-])c1 (configuration not stated)
Second: CC(C)(C)NC(=O)Nc1ccc([N+](=O)[O-])cc1O
The melting point of the first is higher: 124 °C for the first, 99 to 101 °C for the second.

Compared with `COc1cc(CC(=O)NCCCc2ccc(C)c(C)c2)ccc1OCCNC(=O)c1ccccc1OC(C)=O`, `COCCNC(=O)c1cccc(-c2cccc3c(C)c(Cc4ccc(F)c(Cl)c4)sc23)c1` is higher in melting point: 135 to 137 °C for the first, 141 to 142 °C for the second.

Compared with `CC(c1ccc(C(=O)O)cc1)c1cc2cc(C(F)(F)F)ccc2n1S(=O)(=O)c1cccc(C(C)(C)C)c1` (racemic), `CCOc1cc(NC(=O)CCC(=O)c2ccc(OCC)c(OCC)c2)nc(-c2ccccc2)c1` is lower in melting point: 212 °C for the first, 172 to 173 °C for the second.

First: COc1cccc([C@H]2SC[C@@H](C(=O)OC(C)(C)C)N2C(=O)CNC(=O)Nc2cccc(C(=O)O)c2)c1
Second: CC(C)(C)OC(=O)C(=NO)C1=Nc2ccc(Cl)cc2C(c2ccccc2F)=NC1
The melting point of the first is lower: 125 °C for the first, 212 to 214 °C for the second.

First: CCCCC[C@H]1CC[C@H](CC[C@H]2CC[C@H](C#N)CC2)CC1
Second: CC12CCC3C(CC(O)C4(O)CC=CCC34C)C1CC=C2Br (configuration not stated)
The melting point of the first is lower: 56.3 °C for the first, 170 to 175 °C for the second.

First: CCCCCCCCCCCC(=O)NC(C)C(=O)NC(CCC(=O)NC(CCCCN)C(=O)O)C(=O)O (configuration not stated) (Lauroyl-Ala-[γGlu]-Lys-OH; configuration not given here)
Second: CCCNC(=O)C(CCC(=O)NCCCOC(C)=O)NC(=O)C=Cc1ccco1 (configuration not stated)
The melting point of the first is higher: 180 to 186 °C for the first, 154 to 156 °C for the second.

`O=C1NC(=O)C(c2ccccc2Cl)C1c1cc2c3c(ccn3CCC2)c1` (configuration not stated) and `O=C(O)C=C1CC(C(=O)OCc2ccccc2)Nc2cc(Cl)cc(Cl)c21` (racemic) cannot be ordered by melting point: 209 to 212 °C for the first, 210 to 212 °C for the second.

Compared with `O=C(O)Cc1ccsc1Cc1nc2c(F)c(F)cc(F)c2s1`, `Cc1c(C(=O)OC(C)(C)C)c(O)cc2c1C(=O)c1c(O)cccc1C2=O` is higher in melting point: 142 to 144 °C for the first, 207 °C for the second.

First: OC1CCc2cc3ccccc3n2C1 (configuration not stated)
Second: COc1cccc(CS[C@H]2C[C@@H](C(N)=O)N(C)C2)c1
The melting point of the first is lower: 99 to 100 °C for the first, 113 to 114 °C for the second.

Compared with `CCOC(=O)COc1c(C)cc(C(OC)(C(F)(F)F)C(F)(F)F)cc1C`, `O=P(O)(O)CCCCCCCCCCCC(F)(F)C(F)(F)C(F)(F)C(F)(F)F` is lower in melting point: 97 to 98 °C for the first, 93 to 96 °C for the second.

First: COc1ccc(C(=O)Nc2c(Cl)cncc2Cl)c2c1oc1ccc(Br)cc12
Second: COC(=O)c1nccnc1N(C)c1ccc(Cl)cc1[N+](=O)[O-]
The melting point of the first is higher: 308 °C for the first, 111 to 112 °C for the second.

Compared with `CC(=O)Nc1ncc(C=O)s1`, `O=S1(=O)NCC(O)c2ccsc21` (configuration not stated) is lower in melting point: 235 to 236 °C for the first, 138 to 140 °C for the second.

First: O=S1(=O)c2cccc3cccc(c23)N1CCCCl
Second: C#CCOC1(C(F)(F)F)CN(C)C(=O)Nc2ccc(Cl)cc21 (configuration not stated)
The melting point of the first is lower: 78 °C for the first, 230 to 232 °C for the second.

Source: a melting point compilation (Tetko et al.; mined from patent text by program, amines drawn as free bases though some values may be those of a salt)
